Consider eleven molecules from patent US20230339981A1, “KRAS G12D MODULATING COMPOUNDS” (priority 2022, published 2023).

One assay deals with AsPC-1 (KRAS G12D) cells. The assay is described as follows: 3D cell viability assay (spheroids, CellTiter-Glo 3D). Type of assay: cell-based. The conditions noted are these: Homo sapiens, ASPC1, 96 h, AsPC-1 cells, 3D spheroids, 4 days. Summed up: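 AsPC-1 cells (1000/well) in DMEM with 10% FBS formed spheroids over 3 days at 37 °C in ultra-low attachment plates, then were treated with 1:3 serial dilutions for 4 days. Viability read by CellTiter-Glo 3D luminescence; EC50 as concentration giving 50% signal decrease, sigmoidal fit.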
(In ATP-based viability assays light output follows the ATP content of the culture.)

The target of another assay is GDP-loaded KRAS G12D (Homo sapiens (Human), UniProt P01116, G12D). The experiment in a line: KRAS G12D (GDP) biochemical assay (TR-FRET probe displacement). Type of assay: binding. The conditions noted are these: 2 hours. In outline:
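TR-FRET probe displacement: 1:3 DMSO serial dilutions pre-incubated 30 min with GDP-bound KRAS G12D, followed by Eu-streptavidin/probe for 2 h at room temperature (Hepes pH 7.4, NaCl, MgCl2, Tween-20 buffer). IC50 defined as concentration halving TR-FRET ratio, from sigmoidal dose-response fit.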
(In general: Time-resolved FRET reads energy transfer from a long-lived donor to a nearby acceptor.)

Another assay has as its system GP2D (KRAS G12D) cells. The experiment in a line: 2D cell viability assay (CellTiter-Glo). Type of assay: cell-based. The conditions noted are these: GP2d, 96 h, 4 days. Summed up:
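Viability was read by CellTiter-Glo after 4 days at 37 °C of 2D culture of KRAS G12D GP2D cells (1000/well, RPMI, 10% FBS) on pre-spotted threefold compound dilutions. EC50 was fitted with a sigmoidal dose-response model as the point of half-maximal luminescence loss.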

SMILES strings stand for the structures.

GDP-loaded KRAS G12D, sequence (P01116-2 other isoform, or with tags, fused parts or gaps G12D): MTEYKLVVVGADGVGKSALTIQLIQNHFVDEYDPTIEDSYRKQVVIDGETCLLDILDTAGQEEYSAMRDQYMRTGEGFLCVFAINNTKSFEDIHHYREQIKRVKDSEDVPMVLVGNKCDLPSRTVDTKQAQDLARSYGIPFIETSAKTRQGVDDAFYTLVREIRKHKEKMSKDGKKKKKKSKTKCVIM

Regarding `C#Cc1c(F)ccc2cc(O)cc(-c3nc4c5c(nc(OC[C@@]67CCCN6[C@H](Cn6ccnn6)CC7)nc5c3F)N3C[C@H]5CC[C@H](N5)[C@H]3CO4)c12` [Example 49, 4-((5aS,6S,9R)-12-(((3S,7aS)-3-((1H-1,2,3-triazol-1-yl)methyl)tetrahydro-1H-pyrrolizin-7a(5H)-yl)methoxy)-1-fluoro-5a,6,7,8,9,10-hexahydro-5H-4-oxa-3,10a,11,13,14-pentaaza-6,9-methanonaphtho[1,8-ab]heptalen-2-yl)-5-ethynyl-6-fluoronaphthalen-2-ol], the 50% effective concentration (EC50) in the assay with AsPC-1 (KRAS G12D) cells was found to be 140 nM; with GP2D (KRAS G12D) cells, 37 nM. The IC50 on GDP-loaded KRAS G12D turned out to be 0.2 nM.
As to `C#Cc1c(F)ccc2cc(O)cc(-c3cc4c5c(nc(OC[C@@]67CCCN6C[C@H](F)C7)nc5c3F)N3C[C@H]5CC[C@H](N5)[C@H]3CC4)c12` [Example 52, 5-ethynyl-6-fluoro-4-((1S,4R,14aR)-10-fluoro-8-(((2R,7aS)-2-fluorotetrahydro-1H-pyrrolizin-7a(5H)-yl)methoxy)-1,2,3,4,5,13,14,14a-octahydro-1,4-epiminoazepino[1′,2′:1,7]azepino[2,3,4-de]quinazolin-11-yl)naphthalen-2-ol], the EC50 stood at 7 nM in the assay with AsPC-1 (KRAS G12D) cells and 1 nM in the assay with GP2D (KRAS G12D) cells. Also, on GDP-loaded KRAS G12D, the 50% inhibitory concentration (IC50) was determined as 0.1 nM.
For `C#Cc1c(F)ccc2cc(O)cc(-c3nc4c5c(nc(OC[C@@]67CCCN6C[C@H](F)C7)nc5c3F)N3C[C@H]5CC[C@H](N5)[C@H]3CCC4)c12` [Example 75, 5-ethynyl-6-fluoro-4-((6aR,7S,10R)-1-fluoro-13-(((2R,7aS)-2-fluorotetrahydro-1H-pyrrolizin-7a(5H)-yl)methoxy)-5,6,6a,7,8,9,10,11-octahydro-4H-3,11a,12,14,15-pentaaza-7,10-methanocyclohepta[4,5]cycloocta[1,2,3-de]naphthalen-2-yl)naphthalen-2-ol], the results for the EC50 with AsPC-1 (KRAS G12D) cells and in the assay on GP2D (KRAS G12D) cells were 0.5 nM and 0.17 nM, respectively. Moreover, on GDP-loaded KRAS G12D, the IC50 was 0.06 nM.
The like results for `C#Cc1c(F)ccc2cccc(-c3nc4c5c(nc(OC[C@@]67CCCN6C[C@H](F)C7)nc5c3F)N3C[C@H]5CC[C@H](N5)[C@H]3CCC4)c12` [Example 76, (6aR,7S,10R)-2-(8-ethynyl-7-fluoronaphthalen-1-yl)-1-fluoro-13-(((2R,7aS)-2-fluorotetrahydro-1H-pyrrolizin-7a(5H)-yl)methoxy)-5,6,6a,7,8,9,10,11-octahydro-4H-3,11a,12,14,15-pentaaza-7,10-methanocyclohepta[4,5]cycloocta[1,2,3-de]naphthalene] were, in that order, 27 nM, 4 nM and 0.1 nM.
On to `C#Cc1c(F)ccc2cc(O)cc(-c3nc4c5c(nc(OCC6(CN7CCC[Si](C)(C)CC7)CC6)nc5c3F)N3C[C@H]5CC[C@H](N5)[C@H]3CC4)c12` [Example 78, 4-((5aR,6S,9R)-12-((1-((4,4-dimethyl-1,4-azasilepan-1-yl)methyl)cyclopropyl)methoxy)-1-fluoro-4,5,5a,6,7,8,9,10-octahydro-3,10a,11,13,14-pentaaza-6,9-methanonaphtho[1,8-ab]heptalen-2-yl)-5-ethynyl-6-fluoronaphthalen-2-ol], for which the EC50 was 15 nM with AsPC-1 (KRAS G12D) cells and 3.9 nM with GP2D (KRAS G12D) cells. This molecule registered an IC50 on GDP-loaded KRAS G12D of 0.2 nM.
The like results for `C[C@H]1C[C@@H]2[C@@H]3CC[C@H](CN2c2nc(OC[C@@]45CCCN4C[C@H](F)C5)nc4c(F)c(-c5cc(O)cc6ccc(F)c(F)c56)nc1c24)N3` [Example 81, 5,6-difluoro-4-((4S,5aR,6S,9R)-1-fluoro-12-(((2R,7aS)-2-fluorotetrahydro-1H-pyrrolizin-7a(5H)-yl)methoxy)-4-methyl-4,5,5a,6,7,8,9,10-octahydro-3,10a,11,13,14-pentaaza-6,9-methanonaphtho[1,8-ab]heptalen-2-yl)naphthalen-2-ol] were, in that order, 18 nM, 2.8 nM and 0.2 nM.
Regarding `C#Cc1c(F)ccc2cccc(-c3nc4c5c(nc(OC[C@@]67CCCN6C[C@H](F)C7)nc5c3F)N3C[C@H]5CC[C@H](N5)[C@@H]3[C@@H](C)[C@H]4C)c12` [Example 86, (4R,5S,5aS,6S,9R)-2-(8-ethynyl-7-fluoronaphthalen-1-yl)-1-fluoro-12-(((2R,7aS)-2-fluorotetrahydro-1H-pyrrolizin-7a(5H)-yl)methoxy)-4,5-dimethyl-4,5,5a,6,7,8,9,10-octahydro-3,10a,11,13,14-pentaaza-6,9-methanonaphtho[1,8-ab]heptalene], the concentration for a half-maximal effect (EC50) turned out to be 64 nM in the assay on AsPC-1 (KRAS G12D) cells and 14.4 nM in the assay on GP2D (KRAS G12D) cells. On GDP-loaded KRAS G12D, this molecule came in with a concentration for half-maximal inhibition (IC50) of 0.5 nM.
Take `C#Cc1c(F)ccc2cc(O)cc(-c3nc4c5c(nc(OC[C@@]67CCCN6C[C@H](F)C7)nc5c3F)N3C[C@H]5CC[C@H](N5)[C@@H]3[C@@H](C)[C@H]4C)c12` [Example 87, 5-ethynyl-6-fluoro-4-((4R,5S,5aS,6S,9R)-1-fluoro-12-(((2R,7aS)-2-fluorotetrahydro-1H-pyrrolizin-7a(5H)-yl)methoxy)-4,5-dimethyl-4,5,5a,6,7,8,9,10-octahydro-3,10a,11,13,14-pentaaza-6,9-methanonaphtho[1,8-ab]heptalen-2-yl)naphthalen-2-ol]: the EC50 was 0.3 nM in the assay with AsPC-1 (KRAS G12D) cells and 0.2 nM in the assay on GP2D (KRAS G12D) cells. The molecule further had an IC50 at GDP-loaded KRAS G12D of 0.4 nM.
Regarding `C#Cc1c(F)ccc2cc(O)cc(-c3nc4c5c(nc(OC[C@@]67CCCN6C[C@H](F)C7)nc5c3F)N3C[C@H]5CC[C@H](N5)[C@@H]3[C@@H](CC)C4)c12` [Example 92, 4-((5S,5aS,6S,9R)-5-ethyl-1-fluoro-12-(((2R,7aS)-2-fluorotetrahydro-1H-pyrrolizin-7a(5H)-yl)methoxy)-4,5,5a,6,7,8,9,10-octahydro-3,10a,11,13,14-pentaaza-6,9-methanonaphtho[1,8-ab]heptalen-2-yl)-5-ethynyl-6-fluoronaphthalen-2-ol], the EC50 in the assay with AsPC-1 (KRAS G12D) cells is 52 nM; in the assay on GP2D (KRAS G12D) cells it was 17.3 nM. In addition, on GDP-loaded KRAS G12D, the IC50 is 1.9 nM.
On the same counts, the results for `C#Cc1c(F)ccc2cccc(-c3nc4c5c(nc(OC[C@@]67CCCN6C[C@H](F)C7)nc5c3F)N3C[C@H]5CC[C@H](N5)[C@H]3C[C@H]4C)c12` [Example 95, (4R,5aS,6S,9R)-2-(8-ethynyl-7-fluoronaphthalen-1-yl)-1-fluoro-12-(((2R,7aS)-2-fluorotetrahydro-11H-pyrrolizin-7a(5H)-yl)methoxy)-4-methyl-4,5,5a,6,7,8,9,10-octahydro-3,10a,11,13,14-pentaaza-6,9-methanonaphtho[1,8-ab]heptalene] are 200 nM, 31.9 nM and 0.6 nM.
The like results for `C#Cc1c(F)ccc2cc(O)cc(-c3nc4c5c(nc(OC[C@@]67CCCN6C[C@H](F)C7)nc5c3F)N3C[C@H]5CC[C@H](N5)[C@H]3CC4(F)F)c12` [Example 97, 5-ethynyl-6-fluoro-4-((5aR,6S,9R)-1,4,4-trifluoro-12-(((2R,7aS)-2-fluorotetrahydro-1H-pyrrolizin-7a(5H)-yl)methoxy)-4,5,5a,6,7,8,9,10-octahydro-3,10a,11,13,14-pentaaza-6,9-methanonaphtho[1,8-ab]heptalen-2-yl)naphthalen-2-ol] were, in that order, 55 nM, 7.7 nM and 0.2 nM.

One may read the EC50 as the concentration that produces a half-maximal response. What is called IC50 is the concentration at which inhibition is half-maximal. Low values mean greater potency, high ones weaker potency.
